Measurements as given in publication PMC7365463, “Oxfendazole mediates macrofilaricidal efficacy against the filarial nematode Litomosoides sigmodontis in vivo and inhibits Onchocerca spec. motility in vitro” (PLoS Neglected Tropical Diseases, 2020).
Like-named read-outs stand apart in the source and are kept apart here.

Legend:
Acanthocheilonema viteae = tested on: Acanthocheilonema viteae; design: method as in Denham 1980 (Ref. 6); conditions: 80L3, jirds, SC 100mg/kg 5 cons. days, ref Denham 1980 (Ref. 6), cited from earlier work
Brugia malayi = tested on: Brugia malayi; design: method as in Maeda 1988 (Ref. 14); conditions: 150-200L3 (SC), jird, IP 20mg/kg 5 cons. days, 9 months p.i., necropsy 5 weeks p.t.; ref Maeda 1988 (Ref. 14); cited from earlier work
[1] = Bioavailability in dog (in-house); conditions: in vivo, oral, in-house data at high dose of 25 mg/kg, read-out: Bioavailability (F)
Source text: Table 1 Human pharmacokinetic prediction for oxfendazole.

Row | Compound | Reduction of worm burden (Acanthocheilonema viteae; 6 to 10 days p.i., necropsy 73-75 days p.t.) | Reduction of worm burden (Acanthocheilonema viteae; 42-46 days p.i., necropsy 39-40 days p.t.) | Reduction of worm burden (Brugia malayi) | bioavailability [1] | Half-Life (HL), via predicted Vss/CL (human) | Half-Life (HL), dog-hum correlation (human prediction) | Half-Life (HL), rat-hum correlation (human prediction) | predicted human clearance as share of liver blood flow (human prediction)
1 | COC(=O)Nc1nc2cc(C(=O)c3ccc(F)cc3)ccc2[nH]1 [flubendazole] | 100% | 100% | 100% | – | – | – | – | –
2 | COC(=O)Nc1nc2ccc([S+]([O-])c3ccccc3)cc2[nH]1 (centres unmarked) [oxfendazole] | – | – | – | ~10% | 14.4 h | 4.2 h | 12.1 h | ~ 2 % liver blood flow
